Columns and labels:
[1] = target: T1, AKR1B1 (aldose reductase) (Homo sapiens, UniProt P15121); experiment: aldose reductase inhibitor screening kit (NADPH consumption at […] nm); supported by CETSA in Hs578T and SKOV3 cells; assay type: biochemical
[2] = target: T1, AKR1B1 (aldose reductase); experiment: aldose reductase inhibitor screening kit, NADPH consumption at […] nm; assay type: biochemical

Row | Structure (SMILES) | IC50 [1] [µM] | IC50 [2] [µM]
1 | COc1ccc(C[C@H]2COC(=O)[C@@H]2Cc2ccc3c(c2)OCO3)cc1OC (racemic) [(±)KU, trans-(±)-kusunokinin] | 9.72 ± 0.18 | –
2 | COc1ccc(C[C@H]2COC(=O)[C@@H]2Cc2ccc(O[C@@H]3O[C@H](CO)[C@@H](O)[C@H](O)[C@H]3O)c(OC)c2)cc1OC [(−)AR, trans-(−)-arctiin] | – | 13.7
